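How tested: cells in 96-well plates exposed to compound for 48 hours at five concentrations. Here, GI50 denotes the concentration required for 50% inhibition of growth.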 Activity calls are given as the source filed them. Cut-off read from the data, not from the text of the source: active = GI50 up to about 1.1 µM and inactive = higher.
Columns and labels:
Experiment in all cases: NCI anticancer screen, dose series, 48 h
[1] = test system: HL-60
[2] = test system: HOP-92
[3] = test system: A549
[4] = test system: HCT-15
[5] = test system: NCI-H226
[6] = test system: SN12C
[7] = test system: KM12
[8] = test system: NCI-H460
[9] = test system: DU-145
[10] = test system: UO-31
[11] = test system: SW-620
[12] = test system: M14
[13] = test system: RPMI-8226
[14] = test system: COLO 205
[15] = test system: SF-268
[16] = test system: MOLT-4
[17] = test system: CCRF-CEM
[18] = test system: MDA-N
[19] = test system: OVCAR-4
[20] = test system: SF-539
[21] = test system: LOX IMVI
[22] = test system: A498
[23] = test system: UACC-62
[24] = test system: SK-OV-3
[25] = test system: MDA-MB-231
[26] = test system: Malme-3M
[27] = test system: K562
[28] = test system: HCC 2998
[29] = test system: SK-MEL-5
[30] = test system: HOP-62
[31] = test system: SNB-75
[32] = test system: MCF7
[33] = test system: NCI/ADR-RES
[34] = test system: Hs-578T
[35] = test system: T47D
[36] = test system: NCI-H23
[37] = test system: CAKI-1
[38] = test system: SR
[39] = test system: U-251
[40] = test system: UACC-257
[41] = test system: 786-0
[42] = test system: BT-549
[43] = test system: IGROV-1
[44] = test system: OVCAR-3
[45] = test system: EKVX
[46] = test system: HCT-116
[47] = test system: SF-295
[48] = test system: OVCAR-8
[49] = test system: SNB-19
[50] = test system: HT-29
[51] = test system: TK-10
[52] = test system: SK-MEL-2
[53] = test system: ACHN
[54] = test system: NCI-H522
[55] = test system: PC-3
[56] = test system: OVCAR-5
[57] = test system: MDA-MB-435
[58] = test system: RXF 393

COc1ccc(/C(C)=N/NC(=O)c2ccncc2)cc1OC
GI50 [1]: > 10 µM (inactive) | GI50 [2]: > 10 µM (inactive) | GI50 [3]: > 10 µM (inactive) | GI50 [4]: > 10 µM | GI50 [5]: 2.82 µM (inactive) | GI50 [6]: > 10 µM (inactive) | GI50 [7]: > 10 µM (inactive) | GI50 [8]: > 10 µM (inactive) | GI50 [9]: > 10 µM (inactive) | GI50 [10]: 9.08 µM (inactive) | GI50 [11]: > 10 µM (inactive) | GI50 [12]: > 10 µM (inactive) | GI50 [13]: > 10 µM (inactive) | GI50 [14]: > 10 µM (inactive) | GI50 [15]: > 10 µM (inactive) | GI50 [16]: > 10 µM (inactive) | GI50 [17]: > 10 µM (inactive) | GI50 [18]: > 10 µM (inactive) | GI50 [19]: > 10 µM (inactive) | GI50 [20]: > 10 µM (inactive) | GI50 [21]: > 10 µM (inactive) | GI50 [22]: > 10 µM (inactive) | GI50 [23]: > 10 µM (inactive) | GI50 [24]: > 10 µM (inactive) | GI50 [25]: > 10 µM (inactive) | GI50 [26]: > 10 µM (inactive) | GI50 [27]: > 10 µM (inactive) | GI50 [28]: > 10 µM (inactive) | GI50 [29]: > 10 µM (inactive) | GI50 [30]: > 10 µM (inactive) | GI50 [31]: > 10 µM (inactive) | GI50 [32]: > 10 µM (inactive) | GI50 [33]: > 10 µM (inactive) | GI50 [34]: 7.05 µM (inactive) | GI50 [35]: > 10 µM (inactive) | GI50 [36]: > 10 µM (inactive) | GI50 [37]: > 10 µM (inactive) | GI50 [38]: > 10 µM (inactive) | GI50 [39]: > 10 µM (inactive) | GI50 [40]: > 10 µM (inactive) | GI50 [41]: > 10 µM (inactive) | GI50 [42]: > 10 µM (inactive) | GI50 [43]: > 10 µM (inactive)

CCOC(=O)c1nc2ccc(C(F)(F)F)cc2nc1NCc1ccc(OC)c(OC)c1
GI50 [44]: 45.8 µM (inactive) | GI50 [1]: 22.8 µM (inactive) | GI50 [45]: 44.8 µM (inactive) | GI50 [2]: 29.7 µM (inactive) | GI50 [46]: 39.2 µM (inactive) | GI50 [3]: 50.2 µM (inactive) | GI50 [47]: 47.6 µM (inactive) | GI50 [48]: 80.4 µM (inactive) | GI50 [49]: 94.2 µM (inactive) | GI50 [4]: 69 µM | GI50 [5]: 63.5 µM (inactive) | GI50 [7]: 55.5 µM (inactive) | GI50 [8]: 35.6 µM (inactive) | GI50 [50]: 32.1 µM (inactive) | GI50 [10]: 60.7 µM (inactive) | GI50 [11]: 49.7 µM (inactive) | GI50 [12]: 67.8 µM (inactive) | GI50 [13]: 86.1 µM (inactive) | GI50 [14]: 35.8 µM (inactive) | GI50 [15]: 83.9 µM (inactive) | GI50 [51]: > 100 µM (inactive) | GI50 [52]: 24.2 µM (inactive) | GI50 [53]: 53.1 µM (inactive) | GI50 [16]: 34.9 µM (inactive) | GI50 [17]: 65.6 µM (inactive) | GI50 [18]: 51.3 µM (inactive) | GI50 [19]: 73.5 µM (inactive) | GI50 [20]: > 100 µM (inactive) | GI50 [21]: 36.1 µM (inactive) | GI50 [22]: 58.2 µM (inactive) | GI50 [23]: 73.6 µM (inactive) | GI50 [24]: > 100 µM (inactive) | GI50 [54]: 30.6 µM (inactive) | GI50 [25]: > 100 µM (inactive) | GI50 [26]: 97.7 µM (inactive) | GI50 [27]: 49.5 µM (inactive) | GI50 [29]: 37.8 µM (inactive) | GI50 [55]: 35.5 µM (inactive) | GI50 [30]: 58.3 µM (inactive) | GI50 [31]: 21.9 µM (inactive) | GI50 [32]: 37.7 µM (inactive) | GI50 [33]: 37 µM (inactive) | GI50 [34]: 42.8 µM (inactive) | GI50 [35]: 48.1 µM (inactive) | GI50 [36]: 72.8 µM (inactive) | GI50 [56]: > 100 µM (inactive) | GI50 [37]: > 100 µM (inactive) | GI50 [38]: 29.6 µM (inactive) | GI50 [39]: 41.8 µM (inactive) | GI50 [57]: 50.1 µM (inactive) | GI50 [40]: 61.4 µM (inactive) | GI50 [41]: > 100 µM (inactive) | GI50 [58]: 43.6 µM (inactive) | GI50 [42]: 51.3 µM (inactive) | GI50 [43]: 71.1 µM (inactive)
